Results as given in patent US12240811B2, “N-heterocyclic five-membered ring-containing capsid protein assembly inhibitor, pharmaceutical composition and uses thereof” (CHIA TAI TIANQING PHARMACEUTICAL GROUP CO., LTD., priority 2019, dated 2025).
Where two headings read alike, the source gives them in different places.

Legend:
CYP1A2 = CYP1A2 (Homo sapiens (Human), UniProt P05177); test: CYP450 enzyme inhibition study, CYP1A2; assay type: in vitro ADME
Protocol: (§1) 500 μL of a final incubation system contains 50 μL of human liver microsomes (protein concentration: 0.2 mg/mL, Corning), 1 μL of mixed CYP450 specific substrates (CYP1A2, CYP 2B6, CYP 2C9, CYP2C19, CYP 2D6, and CYP 3A4), 398 μL PBS buffer (pH7.4), 1 μL specific positive inhibitor (positive control group) or the test compound (formulated with acetonitrile), and 50 μL NADPH+MgCl2. Duplicate incubation systems of 0.5 mL each were formulated for each CYP450 subtype. A total volume of 450 μL of a uniformly mixed solution of the substrate and the enzyme was formulated in each tube, and the solution and NADPH were pre-incubated at 37° C. for 5 minutes, respectively. Then 50 μL of the mixed solution of NADPH+MgCl2 was added for reaction. 50 μL of the reaction solution was taken out at 30 minutes, and the reaction was terminated with 300 μL of ice acetonitrile containing an internal standard. In addition, two control groups of 500 μL each without NADPH were prepared in parallel as a negative control group.
(§2) Sample pre-treatment: To 50 μL of the incubated sample was added 300 μL of ice acetonitrile containing an internal standard, and then precipitated. After vortexing for 5 minutes, the sample was centrifugated (12000 rpm, 4° C.) for 10 minutes. 75 μL of the supernatant was pipetted, and 75 μL of ultrapure water was added thereto for dilution and mixed uniformly. […]

[1] = In vivo pharmacokinetics (PK) study in rats; parameters: species or system SD rats; conditions: for half-life: SD, in vivo; for AUC(0-t): read-out: AUC(0-48 h)
HBV DNA in serum [2] = test: pAAV/HBV mouse model; assay type: in vivo, C57BL/6 mice; conditions: 3 mpk intragastric once daily
Protocol: 6-8 week old male C57BL/6 mice (Shanghai Lingchang Biotechnology Co., Ltd.) were used, and each mouse was injected with purified recombinant plasmid pAAV/HBV1.2 ([…]) dissolved in PBS equivalent to a volume of about 10% of its body weight through the tail vein within 3-8 s. Blood was collected from the orbits of the mice at 3 days after the plasmid injection to detect serum HBV DNA. The model mice having uniform serum DNA were selected and divided into: a model control group, a vehicle control group, and a test substance group. Mice in each group were continuously administered intragastrically once daily for 10 days at a dose of 3 mg/kg. The mouse serum was taken on day 0, 4, 7, and 10 after the administration, and the mice were sacrificed on day 10 to take liver tissue samples. The HBV DNA copy numbers in serum and liver of the mice were detected by fluorescent quantitative PCR method.

[3] = Plasma protein binding assay, human plasma; assay type: in vitro ADME
Protocol: (§3) Formulation of plasma sample: 495 μL of blank plasmas of the corresponding species (mouse, rat, dog, monkey, and human) were drawn respectively, and thereto was added 5 μL of the corresponding test compound solution or positive control to give plasma sample solutions having a plasma drug concentration of the compound of 1 μM, and 10 μM, respectively (formulated with acetonitrile).
(§4) The pre-treated dialysis membrane was placed in a high-throughput equilibrium dialysis device, and 100 μL of the plasma sample solution and PBS buffer solution were drawn and added respectively to both sides of the dialysis membrane (sample side and buffer side) (n=3). After the equilibration device was sealed with a film, it was incubated at 37° C. overnight (100 rpm). After dialysis equilibrium was reached, 50 μL samples were drawn from the sample side and the buffer side, respectively, and the reaction was terminated by adding ice acetonitrile containing an internal standard.
as §2, with “plasma-side” for “incubated”, “450” for “300”, “uniformly. 1 μL of the resulting solution was injected for analysis.” for “uniformly.”

[4] = Plasma protein binding assay, monkey plasma; assay type: in vitro ADME
Protocol: as §3, §4
as §2, with “plasma-side” for “incubated”, “450” for “300”, “uniformly. 1 μL of the resulting solution was injected for analysis.” for “uniformly.”

HBV DNA in serum [5] = test: Antiviral effect evaluation in AAV mouse model (rAAV8-1.3HBV); assay type: in vivo, C57BL/6 mice; conditions: for Reduction levels (log10) of HBV DNA in serum, Day 28: Day 28 (1 week after administration suspended)
Protocol: 6-8 week old male C57BL/6 mice (Shanghai Lingchang Biotechnology Co., Ltd.) were injected with rAAV8-1.3HBV virus (Beijing FivePlus Gene Technology Ltd., adr subtype) at tail vein at a dose of 1×10^11 vg. Blood was collected from the orbits of the mice on week 2 and 4 after the virus injection. The serum was separated, and the expression levels of HBeAg and HBsAg in the serum and the HBV DNA copy number were detected to evaluate whether the model was successfully established. According to the results of quantitative detection of serological HBeAg, HBsAg and HBV DNA, the mice having HBV DNA expression level greater than 1×10^4 IU/mL, HBeAg expression level greater than 1×10^3 NCU/mL and HBsAg expression level greater than 1×10^3 ng/mL were selected. The mice were grouped into a blank control group, a vehicle control group, and a test substance group. The mice in each group were continuously administered intragastrically once daily for 3 weeks and then the administration was suspended for 1 week. During the experiment, blood was collected from the orbits every other week, serum was separated, and the DNA content was detected by fluorescent quantitative PCR method.

CYP 3A4 = CYP 3A4 (Homo sapiens (Human), UniProt P08684); test: CYP450 enzyme inhibition study, CYP 3A4; assay type: in vitro ADME; conditions: human liver microsomes; read-out: Subtypes IC50 3A4
CYP 3A4, sequence (P08684 whole entry): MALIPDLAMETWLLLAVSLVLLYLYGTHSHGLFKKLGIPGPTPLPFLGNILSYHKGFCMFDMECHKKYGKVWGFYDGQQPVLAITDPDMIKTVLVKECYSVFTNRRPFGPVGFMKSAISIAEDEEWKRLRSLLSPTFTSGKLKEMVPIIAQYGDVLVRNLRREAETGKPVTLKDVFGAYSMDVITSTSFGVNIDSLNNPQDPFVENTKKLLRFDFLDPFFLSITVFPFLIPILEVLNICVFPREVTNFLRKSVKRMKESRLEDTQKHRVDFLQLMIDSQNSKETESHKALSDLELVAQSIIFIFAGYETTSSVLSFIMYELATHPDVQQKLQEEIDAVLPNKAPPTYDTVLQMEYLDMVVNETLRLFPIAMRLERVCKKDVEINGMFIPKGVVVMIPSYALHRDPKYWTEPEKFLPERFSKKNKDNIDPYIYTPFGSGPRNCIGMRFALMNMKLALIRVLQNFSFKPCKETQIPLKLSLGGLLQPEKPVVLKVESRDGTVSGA
Protocol: as §1, §2

[6] = rat, plasma, SD rats, IV 5 mg/kg
[7] = rat, plasma, SD rats, PO 10 mg/kg

CYP1A2, sequence (P05177 whole entry): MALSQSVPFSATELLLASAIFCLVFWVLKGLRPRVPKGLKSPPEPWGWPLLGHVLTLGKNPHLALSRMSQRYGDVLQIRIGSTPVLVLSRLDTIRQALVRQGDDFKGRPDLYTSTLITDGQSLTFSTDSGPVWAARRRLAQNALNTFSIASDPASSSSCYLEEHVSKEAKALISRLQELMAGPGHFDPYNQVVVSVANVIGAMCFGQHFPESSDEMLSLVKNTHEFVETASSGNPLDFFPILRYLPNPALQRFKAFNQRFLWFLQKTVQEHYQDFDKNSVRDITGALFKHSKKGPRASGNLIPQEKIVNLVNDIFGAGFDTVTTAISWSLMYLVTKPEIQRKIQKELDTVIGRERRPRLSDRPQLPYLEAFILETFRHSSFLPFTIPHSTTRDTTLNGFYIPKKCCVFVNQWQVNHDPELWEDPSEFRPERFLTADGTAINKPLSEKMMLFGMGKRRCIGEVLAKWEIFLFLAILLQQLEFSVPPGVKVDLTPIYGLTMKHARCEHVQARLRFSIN

`Cc1[nH]c(C(=O)C(=O)N[C@@H](C)C(F)(F)F)c(C)c1C(=O)Nc1ccc(F)c(C#N)c1` [Example 1, (S)—N-(3-cyano-4-fluorophenyl)-2,4-dimethyl-5-(2-oxo-2-((1,1,1-trifluoroprop-2-yl)amino)acetyl)-1H-pyrrole-3-carboxamide] gave an IC50 (CYP1A2) of 49 µM, an F ([1]; SD rats, PO 10 mg/kg vs IV 5 mg/kg) of 100% and a half-life ([1]; rat, iv, 5 mg/kg) of 52.8 h. For the same compound, the half-life ([1]; rat, po, 10 mg/kg) was 45.6 h, the AUC(0-inf) [1, 6] was 148 µg·h/mL and the Cmax [1, 6] was 3510 ng/mL. It also gave a clearance [1, 6] of 0.5 mL/min/kg, an AUC(0-t) [1, 6] of 127 µg·h/mL and a Vd ([1]; rat, plasma, SD rats, IV 5 mg/kg, read-out: Vz) of 2.58 L/kg. The AUC(0-inf) [1, 7] was 284 µg·h/mL, the Cmax [1, 7] was 4110 ng/mL and the AUC(0-t) [1, 7] was 254 µg·h/mL. The “Reduction levels (log10) of HBV DNA in serum, Day 4” value (HBV DNA in serum [2]; Day 4) was 2.95 log10, the “Reduction levels (log10) of HBV DNA in serum, Day 7” value (shortened to “Reduction levels (log10) … Day 7”) (HBV DNA in serum [2]; Day 7) was 4.13 log10 and the “Reduction levels (log10) of HBV DNA in serum, Day 10” value (HBV DNA in serum [2]; Day 10) was 2.71 log10. The “Binding rate (%) Human” value ([3]; 1 μM) was 97.3%, the “Binding rate (%) Human” value ([3]; 10 μM) was 97.3% and the “Binding rate (%) Monkey” value ([4]; 1 μM) was 90.2%. For the same compound, the “Binding rate (%) Monkey” value ([4]; 10 μM) was 90.5%, the “Reduction levels (log10) … Day 7” value (HBV DNA in serum [5]; 1 mpk intragastric once daily) was 2.49 log10 and the “Reduction levels (log10) of HBV DNA in serum, Day 14” value (HBV DNA in serum [5]; 1 mpk intragastric once daily) was 3.41 log10. For the same compound, the “Reduction levels (log10) of HBV DNA in serum, Day 21” value (HBV DNA in serum [5]; 1 mpk intragastric once daily) was 3.65 log10, the “Reduction levels (log10) of HBV DNA in serum, Day 28” value (HBV DNA in serum [5]; 1 mpk) was 3.25 log10 and the “Reduction levels (log10) … Day 7” value (HBV DNA in serum [5]; 10 mpk intragastric once daily) was 2.67 log10. The “Reduction levels (log10) of HBV DNA in serum, Day 14” value (HBV DNA in serum [5]; 10 mpk intragastric once daily) was 3.80 log10, the “Reduction levels (log10) of HBV DNA in serum, Day 21” value (HBV DNA in serum [5]; 10 mpk intragastric once daily) was 4.30 log10 and the “Reduction levels (log10) of HBV DNA in serum, Day 28” value (HBV DNA in serum [5]; 10 mpk) was 3.50 log10. The IC50 (CYP 3A4) was > 200 µM.
